Laboratory results from PMC6829886, “Inhibition of Non-Small Cell Lung Cancer Cells by Oxy210, an Oxysterol-Derivative that Antagonizes TGFβ and Hedgehog Signaling” (Cells, 2019).

Assays:
[1] = system: TGFβ induced activity of SBE-luciferase reporter; experiment: SBE-luciferase (Smad response-element) reporter assay in NIH3T3-E1 cells; type: cell-based, mouse; settings: 48 hrs
Method: NIH3T3-E1 cells cultured in 24 well-plates at 90% confluence were transiently transfected with 0.1 μg of Smad response-element reporter (SBE-Luciferase) plasmid (Qiagen), or with 0.1 μg of Gli response-element reporter (pGL3b-8xGli-Luciferase) plasmid, and 10 ng of pSV40-Renilla-Luciferase plasmid (Promega, Madison, WI, USA) with or without co-transfection with 10ng of Gli1 overexpression vector, pSRα-Gli1 using a Lipofectamine LTX Plus transfection reagent, as previously described [23]. […] 6 hrs after transfection, cells were treated with test agents for 72 h. […] Twenty-four hours after transfection, cells were treated with test agents for 20 h. Then the firefly and Renilla luciferase activities were measured using a dual luciferase kit (Promega) and a GloMax-96 Microplate Luminometer (Promega) or a plate reader-SpectraMax iD3 (Molecular Devices, San Jose, CA, USA). The firefly luciferase activities were normalized to the Renilla luciferase activities.
(d) NIH3T3 cells cultured in 24 well-plates were transfected with a Smad response element reporter (SBE-Luciferase) plasmid and a pTK-Renilla-Luciferase plasmid. 6 hrs after transfection, cells were treated with the test agents as indicated for 48 hrs. Luciferase activity was measured and normalized to the Renilla luciferase activity.

[2] = Metabolic stability in mouse liver microsomes; type: in vitro ADME
[3] = system: GLI1, GLI2, SHH mRNA in A549 NSCLC cells; experiment: GLI and SHH mRNA expression in A549 cells (Q-RT-PCR); type: cell-based, human
Method: Total RNA was extracted with the RNeasy Plus Mini Kit from Qiagen (Hilden, Germany) according to the manufacturer’s instructions. One microgram of RNA was reverse-transcribed using an iScript Reverse Transcription Supermix from Bio-Rad Laboratories (Hercules, CA, USA) to make single-stranded cDNA. The cDNAs were then mixed with Qi SYBR Green Supermix (Bio-Rad) for quantitative RT-PCR assay using a Bio-Rad I-cycler IQ quantitative thermocycler. All PCR samples were prepared in triplicate wells in a 96-well plate. After 40 cycles of PCR, melt curves were examined in order to ensure primer specificity. Fold changes in gene expression were calculated using the ΔΔCt method. Primers used for mouse were as follows: Oaz1 (5′-CCACTGCTTCGCCAGAGAG-3′) and (5′-CCCGGACCCAGGTTACTA-3′), Gli1 (5′- […]-3′ and 5′- GCT GATCCAGCCTAAGGTTCTC-3′), Ptch1 (5′-CCATCGGCGACAAGAACC-3′ and 5′-[…]-3′), Thbs1 (5′-[…]-3′ and 5′-CGGGGATCAGGTTGGCATT-3′), Cryab (5′-[…]-3′ and 5′-[…]-3′), Egr2 (5′-[…]-3′ and 5′-[…]-3′), CTGF (5′-GGGCCTCTTCTGCGATTTC-3′ and 5′-[…]-3′).
Primers used for human were as follows: GAPDH (5′- […]-3′ and 5′- […]-3′), SHH (5′- CGGAGCGAGGAAGGGAAAG-3′) and (5′- […]-3′), GLI1 (5′- GAAGCCGAGCCGAGTATC-3′ and 5′-[…]-3′), GLI2 (5′-[…]-3′ and 5′-[…]-3′), Fn-EDA (5′- […]-3′ and 5′- […]-3′), E-Cadherin (5′- […]-3′ and 5′- TCCCAGGCGTAGACCAAGA-3′), SNAIL (5′- […]-3′ and 5′- […]-3′), N-Cadherin (5′- […]-3′ and 5′- […]-3′), Vimentin (5′- […]-3′ and 5′- […]-3′), ZO-1 (5′- […]-3′ and 5′- […]-3′), MMP2 (5′- […]-3′ and 5′- […]-3′), MMP9 (5′-[…]-3′ and 5′-[…]).
Figure 6 Inhibition of Glis and SHH expression in Non-Small Cell Lung Cancer (NSCLC) cells. A549 (a) and H2030 (b) cells were treated with Oxy210 in RPMI 1640 containing 5% FBS for 72 h, then RNA was extracted and analyzed by Q-RT-PCR for the expression of the indicated genes and normalized to GAPDH expression. (c) A549 cells were pretreated for 2 h with Oxy210 in RPMI 1640 containing 5% FBS. […] After 48 h, RNA was extracted and analyzed by Q-RT-PCR for the expression of Gli1 and Shh and normalized to GAPDH expression. […]

[4] = system: H2030 cells; experiment: TGFβ-induced EMT gene expression in H2030 cells; type: cell-based, human; settings: 48 h
Method: Total RNA was extracted with the RNeasy Plus Mini Kit from Qiagen (Hilden, Germany) according to the manufacturer’s instructions. One microgram of RNA was reverse-transcribed using an iScript Reverse Transcription Supermix from Bio-Rad Laboratories (Hercules, CA, USA) to make single-stranded cDNA. The cDNAs were then mixed with Qi SYBR Green Supermix (Bio-Rad) for quantitative RT-PCR assay using a Bio-Rad I-cycler IQ quantitative thermocycler. All PCR samples were prepared in triplicate wells in a 96-well plate. After 40 cycles of PCR, melt curves were examined in order to ensure primer specificity. Fold changes in gene expression were calculated using the ΔΔCt method. Primers used for mouse were as follows: Oaz1 (5′-CCACTGCTTCGCCAGAGAG-3′) and (5′-CCCGGACCCAGGTTACTA-3′), Gli1 (5′- […]-3′ and 5′- GCT GATCCAGCCTAAGGTTCTC-3′), Ptch1 (5′-CCATCGGCGACAAGAACC-3′ and 5′-[…]-3′), Thbs1 (5′-[…]-3′ and 5′-CGGGGATCAGGTTGGCATT-3′), Cryab (5′-[…]-3′ and 5′-[…]-3′), Egr2 (5′-[…]-3′ and 5′-[…]-3′), CTGF (5′-GGGCCTCTTCTGCGATTTC-3′ and 5′-[…]-3′). […]
Figure 8 Inhibition of TGFβ-induced EMT in NSCLC cells. […] After 48 h, RNA was extracted and analyzed by Q-RT-PCR for the expression of the genes as indicated and normalized to GAPDH expression. […]

C[C@]12CC[C@H]3[C@@H](CC=C4C[C@@H](O)CC[C@@]43C)[C@@H]1CC[C@@H]2[C@](C)(O)CCc1cccnc1 [Oxy210, (3S,8S,9S,10R,13S,14S,17S)-17-((R)-2-hydroxy-4-(pyridin-3-yl)butan-2-yl)-10,13-dimethyl-2,3,4,7,8,9,10,11,12,13,14,15,16,17-tetradecahydro-1H-cyclopenta[a]phenanthren-3-ol]
TGFβ induced activity of SBE-luciferase reporter [1]: significantly inhibited
remaining at 1 h ([2]; read-out: MLM, % Remaining after 60 min): 61%
half-life ([2]; read-out: MLM, Half-Life): 1.4 h
mRNA expression of GLI1 and GLI2 ([3]; 5 μM, 72 h): significantly inhibited
expression of SHH mRNA ([3]; 72 h): significantly inhibited
expression of GLI1 and SHH mRNA induced by TGFβ ([3]; TGFβ 10 ng/mL, 48 h): completely inhibited
genes associated with TGFβ-induced EMT [4]: complete suppression
